Experimental data reported in US10034862B2, “Solid pharmaceutical composition comprising amlodipine and losartan” (HANMI PHARM. CO., LTD., priority 2014, dated 2018).

Legend:
[1] = cited from earlier work
[2] = Dissolution of losartan at different pH (gelation); assay type: physicochemical
Description: However, when the combined formulation of amlodipine and losartan was prepared, undesirable gelation of losartan was observed. […] As such, in the combined formulation of amlodipine and losartan, amlodipine may also be trapped in the losartan gel due to the gelation of losartan, resulting in a decrease in dissolution rate.

Which “reduction of Cmax of losartan after food ingestion” value [1] does the source give for `CCCCc1nc(Cl)c(CO)n1Cc1ccc(-c2ccccc2-c2nnn[nH]2)cc1` [losartan, 2-butyl-4-chloro-1-[[2′-(1H-tetrazol-5-yl)[1,1′-biphenyl]-4-yl]methyl]-1H-imidazol-5-methanol] here?
Its value is “about 10%”.

And the “dissolution of losartan (in words)” value ([2]; low pH (e.g., pH 1.2 or 2.0), gelation)?
Its value is “very slowly dissolved”.

What about the “dissolution of losartan (in words)” value ([2]; purified water or relatively high pH (e.g., pH 6.8)) of the same compound?
Its value is “easily dissolved”.
